Here are results for eleven compounds from ChEMBL document CHEMBL1134153, “Novel bicyclic lactam inhibitors of thrombin: potency and selectivity optimization through P1 residues” (Bioorg Med Chem Lett, 2001).

One assay has as its target Prothrombin (Rattus norvegicus, UniProt P18292). The experiment in a line: In vitro ability to inhibit the amidolytic activity of thrombin.
Assay [1] has as its system Rattus norvegicus. The experiment in a line: Tested for in vivo activated partial thromboplastin time in rat arterial thrombosis model. The format is functional.
Assay [2] deals with Rattus norvegicus. Put plainly: Tested for in vivo thrombin time in rat arterial thrombosis model. The assay is classed as functional.
Assay [3] has as its system Rattus norvegicus. Put plainly: Tested for in vivo mean occlusion time in rat arterial thrombosis model. The assay is classed as functional.

pKi: −log10 of the molar value. Bounds are passed on as bounds.

As to `N[C@H]1CC[C@H](CNC(=O)C2CC[C@H]3CN(S(=O)(=O)Cc4ccccc4)CC(=O)N23)CC1` (some centres undefined), the negative logarithm of the Ki (pKi) (in general, −log10 of the Ki, conventionally taken in molar units) at Prothrombin was 7.00.

As to `Cc1cc(C(=N)N)ccc1CNC(=O)[C@@H]1CC[C@H]2CN(S(=O)(=O)Cc3ccccc3)CC(=O)N21`, in the assay with Rattus norvegicus [1], the APTT is 0.9 min. The same compound had a pKi on Prothrombin of 8.15. For the same compound, in the assay with Rattus norvegicus [2], the TT came out at 6.55 min. The compound further registered an MOT with Rattus norvegicus [3] of 46 min.

The compound `N/C(=N/O)c1ccc(CNC(=O)[C@@H]2CC[C@H]3CN(S(=O)(=O)Cc4ccccc4)CC(=O)N32)cc1` gave a pKi on Prothrombin below 5.00.

On Prothrombin, `N=C(N)NCCCCNC(=O)C1CC[C@H]2CN(C(=O)CCc3ccccc3)CC(=O)N12` (some centres undefined) had a pKi of 6.05.

In turn, `O=C(NC[C@H]1CC[C@H](NO)CC1)[C@@H]1CC[C@H]2CN(S(=O)(=O)Cc3ccccc3)CC(=O)N21` showed a pKi on Prothrombin of 5.96.

In turn, `N=C(N)N1CCC(CNC(=O)[C@@H]2CC[C@H]3CN(S(=O)(=O)Cc4ccccc4)CC(=O)N32)CC1` showed a negative-log Ki (pKi) at Prothrombin of 7.11.

`N=C(N)c1ccc(CNC(=O)[C@@H]2CC[C@H]3CN(S(=O)(=O)Cc4ccccc4)CC(=O)N32)cc1`: in the assay on Rattus norvegicus [1], the APTT was determined as 0.967 min. This compound also showed a pKi at Prothrombin of 8.10. The same compound returned a TT in the assay on Rattus norvegicus [2] of 7.58 min. The compound further gave an MOT in the assay with Rattus norvegicus [3] above 60 min.

Regarding `N=C(N)N1CCC(CNC(=O)[C@@H]2CC[C@H]3CN(C(=O)CCc4ccccc4)CC(=O)N32)CC1`, the negative logarithm of the Ki (pKi) at Prothrombin was 6.74.

In turn, `N/C(=N\O)N1CCC(CNC(=O)[C@@H]2CC[C@H]3CN(S(=O)(=O)Cc4ccccc4)CC(=O)N32)CC1` had an APTT in the assay with Rattus norvegicus [1] of 0.633 min. The same compound registered a TT in the assay on Rattus norvegicus [2] of 3.85 min. In addition, the MOT in the assay with Rattus norvegicus [3] is on record as 48 min.

Turning to `N=C(N)NCCC[C@H](NC(=O)[C@@H]1CC[C@H]2CN(C(=O)CCc3ccccc3)CC(=O)N21)C(=O)c1nccs1`, the pKi at Prothrombin is 9.22.

Take `O=C(NCc1ccc2nc[nH]c2c1)[C@@H]1CC[C@H]2CN(S(=O)(=O)Cc3ccccc3)CC(=O)N21`: at Prothrombin, the negative-log Ki (pKi) is 6.00.
